Patent US10703729B2, “Pyrazine derivative, and preparation method and medical use thereof” (GUANGZHOU MAGPIE PHARMACEUTICALS CO., LTD., priority 2015, dated 2020)

Assays:
[1] = Wang Tingfang, Journal of Pharmaceutical Practice 2011; cited from earlier work
[2] = system: H9c2 cells; experiment: Protective effect on IAA-induced H9c2 cell damage (MTT); format: cell-based; details: pre-treatment 1 hour, IAA 50 μM 4 hours, 490 nm, FIG. 16
Description: H9c2 cells were seeded in a 96-well plate and incubated for 24 hours at 37° C. in a 5% CO2 incubator. Then, 100 μL it of IND-023 in different concentrations was added and subjected to prepreparation for 1 hour. After induction with IAA (50 μM) for 4 hours, MTT was added, and the absorbance was measured at 490 nm with a microplate reader.

[3] = system: H9c2 cells; experiment: Protective effect on A/R-induced H9c2 cell damage (MTT); format: cell-based; details: hypoxia 12 hours, reoxygenation 4 hours, 490 nm, FIG. 17
Description: H9c2 cells were seeded in a 96-well plate and incubated at 37° C. in a 5% CO2 incubator for 24 hours, and then hypoxia was indicated. IND-023 of the drug group was diluted with KRB buffer as an anoxic solution into desired concentrations. The model group, after added only KRB solution with 50 μL in each well, was placed into the hypoxic box to be incubated for 12 hours, whereas, the blank group, after the initial medium was replaced with serum-free high glucose DMEM, was placed into a normal incubator. After the end of hypoxia, the medium of the model group was changed to serum-free high glucose DMEM. The drug group was diluted with high-glucose DMEM to corresponding concentrations with 100 μL each well, and was placed in a normal incubator and cultured for 4 hours. After the end of reoxygenation, the existing medium was removed and MTT was added. After 4 hours, the OD value was measured at 490 nm to calculate cell viability.

[4] = system: H9c2 cells; experiment: Protective effect on t-BHP-induced H9c2 cell injury (MTT); format: cell-based; details: pre-protected 1 hour, t-BHP 150 μM 12 hours, 490 nm, FIG. 18
Description: H9c2 cells were seeded in a 96-well plate in a density of 1×10^4 cells/well, and cultured in a DMEM complete medium for 24 hours. IND-023 was pre-protected for 1 hour, and then diluted t-BHP 150 μM with serum-free high glucose DMEM and induced for 12 hours. MTT (5 mg/mL) was added and cultured for 4 hours. Then, the medium was aspirated, and 100 μL, of DMSO was added to each well. The cells were homogenized by shaking in a shaking table and the absorbance was measured at a wavelength of 490 nm with a BioTek microplate reader to calculate the cell viability.

[5] = system: SD rat myocardial infarction model; experiment: SD rat myocardial infarction model; format: in vivo; details: 20 mg/kg via tail vein after modeling, read at 24 hours; FIG. 19
Description: A male SD rat was anesthetized with 2.5% isoflurane and fixed. Tracheotomy was performed, and the rat was connected to a ventilator and was cut at the position 0.5 cm on the left side of the sternal along the 2nd intercostal space and the 4th intercostal space 4. The subcutaneous tissue and muscle were bluntly dissected, and the chest was opened at the 4th intercostal space with forceps to expose the chest. The pericardium was carefully opened. The anterior descending branch of the left coronary artery was ligated with non-invasive suture needle No. 8 at the position of 2 to 3 mm from the lower edge of the left atrial appendage. The elevation of the ST segment of lead II ECG after the ligation was taken as an indication of a successful model. Throughout the experiment process, the rat was placed and kept warm on a 37° C. thermostatic table, and after waking up, the rat was placed into the original cage to continue feeding. After successful modeling, the rat was injected via tail vein for 15 min to give 20 mg/kg of IND-023 with a solution of 5% ethanol+5% polyethylene glycol+90% normal saline. […]

Row | Compound | bioavailability [1] | protective effect on IAA-induced H9c2 cell injury [2] | protective effect on A/R-induced H9c2 cell injury [3] | protective effect on t-BHP-induced H9c2 cell injury [4] | protective effect on SD rat myocardial infarction model [5]
1 | O=C(O)[C@H](O)Cc1ccc(O)c(O)c1 [Danshensu, Tanshinol] | 9.53-14.18% | – | – | – | –
2 | Cc1nc(COC(=O)C(O)Cc2ccc(O)c(O)c2)c(C)nc1COC(=O)C(O)Cc1ccc(O)c(O)c1 (centres unmarked) [IND-023] | – | significant protective effect | significant protective effect | significant protective effect | protective effect
